Drawing on PubChem BioAssay (NCI), this text covers TGI and GI50 for 25 compounds.

Where “and” joins values, the source holds several entries; their conditions need not be identical. Identical values can stand only once.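 Values below derive from 48-hour exposures of cells grown in 96-well plates, with endpoints linearly interpolated between the two concentrations bracketing the appropriate inhibition level. GI50 marks 50% less growth. At the TGI there is no net growth.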 Where only a bound is given, the exact number is not on record here.

Experiment in all cases: NCI-60 cell line screen, 48 h
Assay [1] deals with SF-268 CNS.
The test system of assay [2] is TK-10 renal.
Assay [3] has as its system ACHN renal.
In assay [4] the test system is SNB-75 CNS.
The test system of assay [5] is IGROV1 ovarian.
Assay [6] deals with U251 CNS.
Assay [7] relates to NCI-H23 lung.
The subject of assay [8] is 786-0 renal.
Assay [9] has as its system MOLT-4 leukemia.
For assay [10], the system named is NCI/ADR-RES ovarian.

As for `CC(N)Cc1ccc(Cl)cc1` (centres undefined), the TGI in assay [1], in assay [2], in assay [3], in assay [4], in [5] and in assay [6] was > 100 µM throughout. In addition, the TGI in [7], in [8] and in [9] was > 100 µM in each case.
As for `O=C(Nc1cc(Cl)ccc1Cl)c1cc2cccc(Br)c2oc1=O`, the TGI in [2], in assay [3], in assay [4], in assay [5], in assay [6] and in assay [7] was > 100 µM each time. Also, the TGI in assay [8] and in [9] was > 100 µM throughout.
Turning to `COc1ccc2c3c(c(C(=O)O)oc13)CCC2`, the TGI in assay [1], in assay [2], in assay [3], in [4], in assay [5] and in [6] was > 100 µM in each case. Also, the TGI in [7], in assay [8] and in [9] was > 100 µM throughout.
`Cc1cc2c(c3nocc13)C(=O)c1ccccc1C2=O`: the TGI in assay [1], in assay [2], in assay [3], in [4], in assay [5] and in assay [6] was > 100 µM throughout. In addition, the TGI in assay [7], in [8] and in [9] was > 100 µM in each case.
For `CN(C)CCNC(=O)c1cccc2nc3ccc4cccnc4c3nc12`, the TGI in assay [1] came to 3.13 µM; in assay [2] it was 0.688 µM; in [3], 3.27 µM; in [4], 1.84 µM; in assay [6], 4.39 µM; in [7], 1.35 µM. For the same compound, the TGI in assay [8] worked out at 10.9 µM; in [9], 0.763 µM.
Take `COC1=CC(=O)C(Br)=CC1=O`: the TGI in [1] turned out to be 33.8 µM; in assay [2], 35.8 µM; in assay [4], 29.1 µM; in [5], 31.1 µM; in [7], 40.8 µM; in [8], 32.9 µM. The same compound gave a TGI in assay [9] of 10.4 µM.
As for `COc1cccc(OC(=O)c2ccc(C(F)(F)F)nc2Nc2c(C)cccc2Cl)c1`, the GI50 in assay [1] is 24.8 µM; in [4] it was 16.4 µM; in assay [5] it was 15.1 µM; in [6], 19.1 µM; in [7], 1.84 µM; in assay [8], 27.7 µM. Further, in [9], the GI50 is 31.5 µM. The TGI in [1] was 86.8 µM; in assay [4], 40.9 µM; in assay [5], 43.3 µM; in assay [6], 40.6 µM; in [7], 19 µM; in [8], > 100 µM. The TGI in [9] is > 100 µM.
Consider `O=C1NC(=O)C(=Cc2c3ccccc3cc3ccccc23)C(=O)N1`, for which the TGI in [1], in [2], in assay [3], in assay [5], in assay [6] and in assay [7] was > 100 µM each time. For the same compound, the TGI in assay [8] and in [9] was > 100 µM throughout.
`CC(C)=O.O=C([O-])C(F)(F)F.O=C([O-])C(F)(F)F.O=C([O-])C(F)(F)F.O=C([O-])C(F)(F)F.[Rh+2].[Rh+2]`: the GI50 in [1] was > 100 µM; in assay [2], 81.4 µM; in [3] it was 50.5 µM; in [4] it was 58.6 µM; in [5], > 100 µM; in assay [6] it was 47.5 µM. The GI50 in assay [7] was 46.7 µM; in assay [8], 71.5 µM; in assay [9] it was 15.4 µM. Moreover, the TGI in assay [1], in assay [2], in [3], in assay [4], in assay [5] and in assay [6] was > 100 µM in each case. Moreover, the TGI in assay [7], in [8] and in [9] was > 100 µM in each case.
As for `C#CCN(N=O)C(=O)NCCCCC(NC(=O)OCc1ccccc1)C(=O)OCc1ccccc1` (centres undefined), the TGI in assay [1] is 73.5 µM; in [2] it was > 100 µM; in assay [3], > 100 µM; in assay [4], > 100 µM; in [5], > 100 µM; in assay [6] it was > 100 µM. Moreover, the values for the TGI in assay [7], in assay [8] and in assay [9] were > 100 µM, > 100 µM and 50.6 µM, respectively.
Regarding `COC1CC(C)C(OC)c2cc(O)cc(c2O)NC(=O)/C(C)=C/C=C\C(C)C(OC(N)=O)/C(C)=C\C(C)C1OC` (centres undefined), the GI50 in [1] is 0.693 µM and 0.279 µM; in assay [2] it was 2.92 µM; in assay [3], 6.71 µM; in assay [4], 0.245 µM; in assay [5], 0.273 µM and 0.506 µM; in assay [6] it was 0.614 µM. The GI50 was 0.169 µM and 0.179 µM in [7]; 4.62 µM in [8]; 0.0437 µM and 0.0746 µM in assay [9]. Further, the TGI in assay [1] is 21.1 µM and 11 µM; in assay [2] it was 21.1 µM and 10.6 µM; in assay [3] it was 12.6 µM and 13.2 µM; in assay [4], 18.2 µM and 3.42 µM; in [5], 15.9 µM and 8 µM; in assay [6] it was 16.1 µM and 23.6 µM. Further, the TGI in assay [7] was 5.59 µM and 4.37 µM; in assay [8] it was 11.5 µM and 24.3 µM.
Consider `Cc1cc(C)nc(NS(=O)(=O)c2ccc(Nc3c4ccccc4nc4c(C(=O)Nc5ccc(S(=O)(=O)Nc6cc(C)on6)cc5)ccc(Cl)c34)cc2)n1`, for which the TGI in assay [1] was > 100 µM; in assay [2], > 100 µM; in assay [3], > 100 µM; in assay [4] it was 84.1 µM; in [6], 30.9 µM; in [7] it was 59.7 µM. Further, the TGI in [8] amounted to 34.1 µM; in assay [9], 49.1 µM.
Take `COc1ccc(-c2nsc3c2NC(=O)CC3c2ccc3c(c2)OCCO3)cc1` (centres undefined): the GI50 was 1.92 µM in [1]; 1.87 µM in assay [2]; 0.892 µM in assay [3]; 0.22 µM in assay [4]; 1.6 µM in [5]; 0.5 µM in assay [6]. In addition, the GI50 in [7] is 1.38 µM; in assay [8], 0.829 µM; in [9], 0.622 µM. Moreover, the TGI in assay [1], in assay [2], in assay [3], in assay [4], in assay [5] and in assay [6] was > 100 µM in each case. In addition, the TGI in assay [7], in assay [8] and in assay [9] was > 100 µM in each case.
With `S=c1nc(C(c2ccccc2)c2ccccc2)[nH][nH]1`, the TGI in [1], in [2], in [3], in [5], in assay [6] and in [7] was > 100 µM each time. In addition, the TGI in assay [8] and in assay [9] was > 100 µM each time.
On to `COc1cccc2c1C(=O)c1c(O)c3c(c(O)c1C2=O)C[C@@](O)(C(C)=O)C[C@@H]3OC1CC([N+]([O-])(Cc2ccccc2)Cc2ccccc2)C(O)C(C)O1` (some centres undefined), for which the TGI was 3.37 µM in [2]; 2.73 µM in assay [3]; 4.25 µM in [4]; 4.82 µM in assay [5]; 2.48 µM in assay [6]; 2.58 µM in assay [7]. Moreover, the TGI in assay [8] amounted to 2.86 µM.
As to `O=c1/c(=C/c2c(O)ccc3ccccc23)sc2nc3ccccc3n12`, the TGI in [1], in [2], in [3], in [4], in assay [5] and in assay [6] was > 100 µM in each case. Also, the TGI in [7] and in assay [8] was > 100 µM each time.
For the compound `O=C1C=CC(=O)C2C1Cc1ccccc1C2c1ccccc1` (centres undefined), the TGI is > 100 µM in assay [1]; > 100 µM in assay [2]; > 100 µM in assay [3]; > 100 µM in assay [4]; > 100 µM in [5]; 33 µM in [6]. The TGI was > 100 µM in assay [7], > 100 µM in assay [8] and 93.2 µM in assay [9].
In the case of `CCC[CH2][Sn]([CH2]CCC)([CH2]CCC)[O]C(=O)C(OC(C)=O)c1ccccc1` (centres undefined), the GI50 in assay [1] is 0.138 µM; in assay [2], 0.244 µM; in [3], 0.143 µM; in assay [4], 0.134 µM; in assay [5], 0.153 µM; in assay [6], 0.14 µM. For the same compound, the GI50 in assay [7] was 0.131 µM; in [8] it was 0.157 µM; in assay [9] it was 0.0539 µM. Besides, the TGI was 0.368 µM in [1]; 0.888 µM in [2]; 0.274 µM in assay [3]; 0.424 µM in assay [4]; 0.323 µM in assay [5]; 0.27 µM in assay [6]. Moreover, the TGI in [7] is 0.262 µM; in assay [8] it was 0.295 µM; in assay [9], 0.42 µM.
On to `Cn1cnc([N+](=O)[O-])c1Sc1nnnn1C`, for which the TGI in [1] came out at 50.2 µM; in [2] it was 31.4 µM; in [3], 30.5 µM; in [4], 89.6 µM; in [5], 49.1 µM; in [6] it was 34.1 µM. Also, the TGI in assay [7] was determined as 34.7 µM; in assay [8], 32.1 µM; in [9] it was 33.7 µM.
For the compound `O=C1CSC(c2ccc(-c3nc4ccccc4[nH]3)cc2)=N1`, the GI50 in [1] was 22.4 µM; in assay [2], > 50 µM; in [3] it was 24.7 µM; in assay [5] it was 21.9 µM; in [6], 17.4 µM; in [7], 47.4 µM. Moreover, the GI50 in assay [8] is 42.5 µM; in assay [10] it was > 50 µM. Also, the TGI in assay [1], in assay [2], in [3], in assay [5], in assay [6] and in assay [7] was > 50 µM each time. For the same compound, the TGI in assay [8] and in [10] was > 50 µM each time.
Take `CSC(=Nc1ccccc1Cl)NC(=O)c1ccc(Br)cc1`: the TGI in [1], in [2], in [3], in [5], in assay [6] and in [7] was > 100 µM throughout. Also, the TGI was 86.3 µM in assay [8] and 54.9 µM in assay [9].
Regarding `NCCOCn1cc(Cc2cccc(OCc3ccccc3)c2)c(=O)[nH]c1=O`, the TGI in assay [2], in [4], in assay [5], in [6], in [7] and in assay [8] was > 100 µM throughout. For the same compound, in [9], the TGI was > 100 µM.
On to `Cc1ccc(NC(=O)C(=O)C(C(=O)c2ccc3ccccc3c2)C2OC(=O)c3ccccc32)c(C)c1` (centres undefined), for which the TGI was 35.7 µM in assay [1]; 42.9 µM in assay [2]; 60.4 µM in [3]; 47.3 µM in [4]; 39.9 µM in assay [5]; 17.2 µM in assay [6]. Further, the TGI is 37.2 µM in [7], 19.7 µM in assay [8] and 23.7 µM in assay [9].
Consider `CCN(CC)CCCOc1ccc2ncnc(Nc3ccc(Oc4cccc(C(F)(F)F)c4)c(Cl)c3)c2c1`, for which the GI50 in assay [1] was 1.44 µM; in assay [2] it was 1.14 µM; in [3], 1.07 µM; in assay [4] it was 1.49 µM; in [7], 1.56 µM; in assay [8] it was 1.54 µM. The GI50 in assay [9] was 1.88 µM. The TGI in assay [1] was found to be 3.07 µM; in [2] it was 2.56 µM; in assay [3], 2.26 µM; in [4], 2.86 µM; in assay [7] it was 3.05 µM; in assay [8], 2.95 µM. Also, the TGI in [9] was found to be 4.49 µM.
On to `O=C1OC(c2ccccc2)(c2ccccc2)c2ccc3ccc(F)cc3c21`, for which the TGI in [1], in assay [2], in assay [3], in [4], in assay [5] and in [6] was > 100 µM each time. In addition, the TGI in [7], in assay [8] and in assay [9] was > 100 µM throughout.
